Test results published in patent publication US5747490A, “Alpha 1b adrenergic receptor antagonists” (Merck & Co., Inc., priority 1996, dated 1998).

How the values were obtained:
[1] = biological target: T1, human alpha 1d adrenergic receptor (Homo sapiens, UniProt P25100); test: Selective Binding assay, alpha 1d ([125I]-HEAT competition binding); settings: Table 1, cloned human receptors; read-out: alpha adrenergic receptor subtype binding, 1d
T1 construct: host or cells: stably transfected human alpha 1d cell line (ATCC CRL 11138)
T1 sequence (P25100 1-572): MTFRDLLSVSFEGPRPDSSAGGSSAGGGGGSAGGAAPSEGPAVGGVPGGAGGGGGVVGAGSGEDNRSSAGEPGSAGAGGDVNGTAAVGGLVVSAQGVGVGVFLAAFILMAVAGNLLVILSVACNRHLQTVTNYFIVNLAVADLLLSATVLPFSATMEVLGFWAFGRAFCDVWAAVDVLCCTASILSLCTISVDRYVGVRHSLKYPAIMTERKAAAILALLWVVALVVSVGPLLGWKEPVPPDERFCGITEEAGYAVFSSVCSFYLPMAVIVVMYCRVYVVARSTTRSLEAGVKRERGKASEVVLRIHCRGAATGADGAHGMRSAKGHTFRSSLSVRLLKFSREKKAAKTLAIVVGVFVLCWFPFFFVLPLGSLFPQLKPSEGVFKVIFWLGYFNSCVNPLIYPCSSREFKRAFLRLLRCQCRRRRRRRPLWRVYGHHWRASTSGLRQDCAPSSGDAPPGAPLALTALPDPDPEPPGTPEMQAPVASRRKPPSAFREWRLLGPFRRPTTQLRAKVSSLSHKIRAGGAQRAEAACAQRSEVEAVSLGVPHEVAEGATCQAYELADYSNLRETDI
Description: (§1) These competition binding reactions (total volume=200 μl) contained 50 mM Tris-HCl pH 7.4, 5 mM EDTA, 150 mM NaCl, 100 pM [^125 I]-HEAT, membranes prepared from cell lines transfected with the respective alpha 1 subtype expression plasmid and increasing amounts of unlabeled ligand. Reactions were incubated at room temperature for one hour with shaking. Reactions were filtered onto Whatman GF/C glass fiber filters with a Inotec 96 well cell harvester. Filters were washed three times with ice cold buffer and bound radioactivity was determined (Ki).

[2] = biological target: T2, human alpha 1b adrenergic receptor (Homo sapiens, UniProt P35368); test: Alpha 1b Adrenergic Receptor Binding ([125I]-HEAT competition binding); settings: Table 1, cloned human receptors; read-out: alpha adrenergic receptor subtype binding, 1b
T2 construct: host or cells: stably transfected human alpha 1b cell line (ATCC CRL 11139)
T2 sequence (P35368 1-520): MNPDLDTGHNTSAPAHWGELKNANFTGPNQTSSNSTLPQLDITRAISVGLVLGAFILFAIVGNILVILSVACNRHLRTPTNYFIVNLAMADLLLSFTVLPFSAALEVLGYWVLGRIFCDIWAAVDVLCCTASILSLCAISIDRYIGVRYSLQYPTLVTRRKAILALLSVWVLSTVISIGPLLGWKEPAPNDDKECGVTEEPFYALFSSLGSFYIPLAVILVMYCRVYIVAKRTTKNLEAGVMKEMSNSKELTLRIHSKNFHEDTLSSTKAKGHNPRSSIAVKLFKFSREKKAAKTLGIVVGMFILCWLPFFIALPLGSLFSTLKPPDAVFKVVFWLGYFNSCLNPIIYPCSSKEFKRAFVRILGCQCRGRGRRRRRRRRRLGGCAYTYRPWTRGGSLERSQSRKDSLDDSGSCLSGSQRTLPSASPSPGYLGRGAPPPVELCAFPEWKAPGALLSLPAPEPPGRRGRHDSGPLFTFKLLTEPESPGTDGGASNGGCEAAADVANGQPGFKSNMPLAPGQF
Description: (§2) Receptor binding data for representative compounds of the present invention in cloned human receptors is shown below in Table 1.
Screening assay: Alpha 1b Adrenergic Receptor Binding
as §1, with “Membranes prepared from the stably transfected human alpha 1b cell line (ATCC CRL 11139) were used to identify compounds that bind to the human alpha 1b adrenergic receptor. These” for “These”, “from the alpha 1b” for “from”, “line” for “lines transfected with the respective alpha 1 subtype expression plasmid”

[3] = biological target: T3, human alpha 2b adrenergic receptor (Homo sapiens, UniProt P18089); test: Receptor binding, cloned human alpha 2b; settings: for Ki: Table 1, cloned human receptors, read-out: alpha adrenergic receptor subtype binding, 2b
T3 construct: expressed in transfected cells; host or cells: cloned human receptor
T3 sequence (P18089 1-450): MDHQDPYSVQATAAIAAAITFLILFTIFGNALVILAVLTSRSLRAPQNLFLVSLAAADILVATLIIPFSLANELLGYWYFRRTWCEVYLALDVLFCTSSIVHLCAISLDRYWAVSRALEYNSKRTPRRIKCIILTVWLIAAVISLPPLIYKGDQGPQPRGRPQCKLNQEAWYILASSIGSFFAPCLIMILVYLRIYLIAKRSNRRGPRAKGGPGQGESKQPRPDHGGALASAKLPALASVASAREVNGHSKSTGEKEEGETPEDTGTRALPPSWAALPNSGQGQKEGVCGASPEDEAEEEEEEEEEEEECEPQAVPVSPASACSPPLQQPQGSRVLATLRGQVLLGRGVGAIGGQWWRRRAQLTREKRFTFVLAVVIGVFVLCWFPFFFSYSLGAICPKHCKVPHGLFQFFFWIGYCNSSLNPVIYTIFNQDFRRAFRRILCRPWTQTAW
Text: (§3) This is accomplished according to methods known in the art using other receptors responsible for mediating diverse biological functions. [See e.g., PCT International Application Publication No. WO94/10989, published 26 May 1994; U.S. Pat. No. 5,403,847, issued Apr. 4, 1995, the contents of which are hereby incorporated by reference]. Compounds which are both selective amongst the various human alpha 1 adrenergic receptor subtypes and which have low affinity for other receptors, such as the alpha 2 adrenergic receptors, the β-adrenergic receptors, the muscarinic receptors, the serotonin receptors, and others are particularly preferred. The absence of these non-specific activities may be confirmed by using cloned and expressed receptors in an analogous fashion to the method disclosed herein for identifying compounds which have high affinity for the various human alpha 1 adrenergic receptors. Furthermore, functional biological tests are used to confirm the effects of identified compounds as alpha 1b adrenergic receptor antagonists.
as §2

[4] = biological target: T4, human alpha 1a adrenergic receptor (Homo sapiens, UniProt P35348); test: Selective Binding assay, alpha 1a ([125I]-HEAT competition binding); settings: Table 1, cloned human receptors; read-out: alpha adrenergic receptor subtype binding, 1a
T4 construct: host or cells: stably transfected human alpha 1a cell line (ATCC CRL 11140)
T4 sequence (P35348 1-466): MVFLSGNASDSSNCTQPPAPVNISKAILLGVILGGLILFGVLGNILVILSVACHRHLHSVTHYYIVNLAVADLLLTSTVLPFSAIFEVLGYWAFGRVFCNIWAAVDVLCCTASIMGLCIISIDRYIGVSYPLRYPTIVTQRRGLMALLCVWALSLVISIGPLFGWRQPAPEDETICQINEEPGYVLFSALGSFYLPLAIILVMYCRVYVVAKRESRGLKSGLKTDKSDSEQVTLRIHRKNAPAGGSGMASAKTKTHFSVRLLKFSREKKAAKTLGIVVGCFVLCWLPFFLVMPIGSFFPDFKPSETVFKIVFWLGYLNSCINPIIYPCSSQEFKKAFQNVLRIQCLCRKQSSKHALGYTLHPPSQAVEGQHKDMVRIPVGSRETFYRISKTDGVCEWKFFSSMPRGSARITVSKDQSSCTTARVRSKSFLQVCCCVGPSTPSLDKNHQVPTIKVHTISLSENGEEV
Description: as §1

[5] = biological target: T5, human alpha 2c adrenergic receptor (Homo sapiens, UniProt P18825); test: Receptor binding, cloned human alpha 2c; settings: for Ki: Table 1, cloned human receptors, read-out: alpha adrenergic receptor subtype binding, 2c
T5 construct: expressed in transfected cells; host or cells: cloned human receptor
T5 sequence (P18825 1-462): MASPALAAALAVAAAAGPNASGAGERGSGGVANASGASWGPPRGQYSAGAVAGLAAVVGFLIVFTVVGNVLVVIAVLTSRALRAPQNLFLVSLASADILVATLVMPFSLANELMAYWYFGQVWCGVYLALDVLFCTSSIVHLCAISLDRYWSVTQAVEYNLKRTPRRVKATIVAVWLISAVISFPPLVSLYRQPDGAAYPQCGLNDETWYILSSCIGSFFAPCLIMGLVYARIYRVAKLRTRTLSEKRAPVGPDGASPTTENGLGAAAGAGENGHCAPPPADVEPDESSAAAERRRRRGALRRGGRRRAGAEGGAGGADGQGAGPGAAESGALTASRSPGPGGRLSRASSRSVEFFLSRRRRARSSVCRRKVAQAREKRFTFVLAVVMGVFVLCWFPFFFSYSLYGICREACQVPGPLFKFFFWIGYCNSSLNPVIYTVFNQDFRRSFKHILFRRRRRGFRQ
Text: as §3, §2

[6] = biological target: T6, human alpha 2a adrenergic receptor (Homo sapiens, UniProt P08913); test: Receptor binding, cloned human alpha 2a; settings: for Ki: Table 1, cloned human receptors, read-out: alpha adrenergic receptor subtype binding, 2a
T6 construct: expressed in transfected cells; host or cells: cloned human receptor
T6 sequence (P08913 1-465): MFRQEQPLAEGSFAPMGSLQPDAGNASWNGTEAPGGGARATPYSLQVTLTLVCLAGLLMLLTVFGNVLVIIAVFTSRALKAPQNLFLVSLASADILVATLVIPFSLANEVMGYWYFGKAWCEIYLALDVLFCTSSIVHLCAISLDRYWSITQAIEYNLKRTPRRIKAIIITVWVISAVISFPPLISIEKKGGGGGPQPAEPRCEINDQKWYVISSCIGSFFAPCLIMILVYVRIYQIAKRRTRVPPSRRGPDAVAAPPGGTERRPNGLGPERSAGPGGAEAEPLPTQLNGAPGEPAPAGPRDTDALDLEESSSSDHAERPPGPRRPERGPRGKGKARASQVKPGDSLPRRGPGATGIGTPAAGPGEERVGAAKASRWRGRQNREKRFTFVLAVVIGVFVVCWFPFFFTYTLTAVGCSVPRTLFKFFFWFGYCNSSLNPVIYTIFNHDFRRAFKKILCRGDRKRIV
Text: as §3, §2

Ki [1]	Ki [2]	Ki [3]	Ki [4]	Ki [5]	Ki [6]	inhibition at 1 µM ([3]; read-out: alpha adrenergic receptor subtype binding, 2b, % @ 1 uM)	inhibition at 10 µM ([3]; read-out: alpha adrenergic receptor subtype binding, 2b, % @ 10 uM)	inhibition at 1 µM ([5]; read-out: alpha adrenergic receptor subtype binding, 2c, % @ 1 uM)	inhibition at 10 µM ([5]; read-out: alpha adrenergic receptor subtype binding, 2c, % @ 10 uM)	inhibition at 1 µM ([6]; read-out: alpha adrenergic receptor subtype binding, 2a, % @ 1 uM)	inhibition at 10 µM ([6]; read-out: alpha adrenergic receptor subtype binding, 2a, % @ 10 uM)	SMILES
29 nM	1 nM	> 10000 nM	463 nM	715 nM	683 nM	–	–	–	–	–	–	COc1cc2nc(N3CCN(C(=O)OCc4ccccc4)[C@H](C(=O)NC(C)(C)C)C3)nc(N)c2cc1OC [Compound 2a, (S)-1-(4-Amino-6,7-dimethoxy-2-quinazolinyl)-4-[(benzyloxy)carbonyl]-3-(1,1-dimethylethylamino)carbonyl piperazine]
111 nM	2.7 nM	> 10000 nM	1190 nM	736 nM	1170 nM	–	–	–	–	–	–	COc1cc2nc(N3CCN[C@H](C(=O)NC(C)(C)C)C3)nc(N)c2cc1OC [Compound 3a, (S)-1-(4-Amino-6,7-dimethoxy-2-quinazolinyl)-3-(1,1-dimethylethylamino)carbonyl piperazine]
97 nM	3.4 nM	–	> 3670 nM	–	–	16%	23%	42%	71%	23%	65%	COc1cc2nc(N3CCN(C(=O)c4ccco4)[C@H](C(=O)NC(C)(C)C)C3)nc(N)c2cc1OC [Compound 4a]
